Test results as given in ChEMBL document CHEMBL4507319 (2021).

What was measured:
[1] = target: Rho-associated protein kinase 1 (Homo sapiens) (UniProt Q13464); test: ROCK-I(h) Eurofins kinase panel; conditions: Compound concentration 1.0 uM
[2] = target: RAF proto-oncogene serine/threonine-protein kinase (Homo sapiens) (UniProt P04049); test: c-RAF(h) Eurofins kinase panel; conditions: Compound concentration 1.0 uM
[3] = target: T1, Phosphatidylinositol 3-kinase C2 domain-containing subunit gamma (Homo sapiens) (UniProt O75747); test: PI3KC2g(h) Eurofins kinase panel; conditions: Compound concentration 1.0 uM
T1 sequence (whole entry): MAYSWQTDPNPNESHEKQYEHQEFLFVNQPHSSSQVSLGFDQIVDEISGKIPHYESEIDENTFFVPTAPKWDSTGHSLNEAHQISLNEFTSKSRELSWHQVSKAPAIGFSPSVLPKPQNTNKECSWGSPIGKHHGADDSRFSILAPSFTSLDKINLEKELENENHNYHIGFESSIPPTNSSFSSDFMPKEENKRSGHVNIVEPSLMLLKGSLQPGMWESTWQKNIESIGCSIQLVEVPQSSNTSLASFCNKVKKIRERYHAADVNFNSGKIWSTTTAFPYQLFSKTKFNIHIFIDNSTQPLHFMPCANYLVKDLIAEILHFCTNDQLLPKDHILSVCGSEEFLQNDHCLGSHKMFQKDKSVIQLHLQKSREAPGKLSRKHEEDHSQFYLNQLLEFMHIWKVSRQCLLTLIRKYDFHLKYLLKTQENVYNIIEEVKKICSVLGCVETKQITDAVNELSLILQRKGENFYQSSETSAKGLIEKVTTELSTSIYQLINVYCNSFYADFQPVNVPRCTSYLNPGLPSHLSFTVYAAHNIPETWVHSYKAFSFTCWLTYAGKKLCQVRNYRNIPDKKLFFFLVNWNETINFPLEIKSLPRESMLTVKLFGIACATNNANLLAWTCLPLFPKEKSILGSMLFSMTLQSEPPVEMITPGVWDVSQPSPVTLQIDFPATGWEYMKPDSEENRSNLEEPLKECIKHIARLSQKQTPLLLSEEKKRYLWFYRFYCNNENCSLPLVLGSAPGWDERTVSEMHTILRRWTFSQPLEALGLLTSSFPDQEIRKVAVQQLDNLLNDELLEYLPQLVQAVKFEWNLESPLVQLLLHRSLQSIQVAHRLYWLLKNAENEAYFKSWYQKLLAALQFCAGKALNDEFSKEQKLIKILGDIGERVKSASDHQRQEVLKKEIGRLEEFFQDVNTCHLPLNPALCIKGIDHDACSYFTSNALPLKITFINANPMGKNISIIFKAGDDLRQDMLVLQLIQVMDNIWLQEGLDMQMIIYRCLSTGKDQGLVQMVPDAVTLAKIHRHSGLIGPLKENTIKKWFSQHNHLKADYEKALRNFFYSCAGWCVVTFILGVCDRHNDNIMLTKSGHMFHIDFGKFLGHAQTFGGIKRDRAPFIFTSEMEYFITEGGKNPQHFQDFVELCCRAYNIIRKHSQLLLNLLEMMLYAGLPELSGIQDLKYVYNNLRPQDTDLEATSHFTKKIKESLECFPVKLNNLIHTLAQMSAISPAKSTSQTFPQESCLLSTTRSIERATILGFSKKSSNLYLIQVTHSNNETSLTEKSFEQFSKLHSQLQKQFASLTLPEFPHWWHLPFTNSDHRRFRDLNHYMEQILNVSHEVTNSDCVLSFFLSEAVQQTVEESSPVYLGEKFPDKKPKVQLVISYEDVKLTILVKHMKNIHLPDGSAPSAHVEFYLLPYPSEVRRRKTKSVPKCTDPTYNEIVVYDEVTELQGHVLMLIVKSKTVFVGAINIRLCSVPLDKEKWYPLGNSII

[4] = target: Serine/threonine-protein kinase 25 (Homo sapiens) (UniProt O00506); test: STK25(h) Eurofins kinase panel; conditions: Compound concentration 1.0 uM
Chain of Serine/threonine-protein kinase 25 (Homo sapiens) (O00506 whole entry, looked up): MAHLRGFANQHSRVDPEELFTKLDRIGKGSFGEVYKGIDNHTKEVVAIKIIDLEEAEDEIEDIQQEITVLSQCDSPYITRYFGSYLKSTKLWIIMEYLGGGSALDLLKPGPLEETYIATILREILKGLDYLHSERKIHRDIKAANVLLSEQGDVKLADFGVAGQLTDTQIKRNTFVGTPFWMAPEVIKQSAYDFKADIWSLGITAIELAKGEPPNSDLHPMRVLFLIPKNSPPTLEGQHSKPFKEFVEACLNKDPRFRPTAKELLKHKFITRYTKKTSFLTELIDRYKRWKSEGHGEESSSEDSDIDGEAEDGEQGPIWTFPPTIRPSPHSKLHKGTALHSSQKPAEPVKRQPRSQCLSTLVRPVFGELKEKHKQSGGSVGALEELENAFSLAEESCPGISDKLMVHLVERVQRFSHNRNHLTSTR

[5] = target: Serine/threonine-protein kinase VRK2 (Homo sapiens) (UniProt Q86Y07); test: VRK2(h) Eurofins kinase panel; conditions: Compound concentration 1.0 uM
Chain of Serine/threonine-protein kinase VRK2 (Homo sapiens) (Q86Y07 whole entry): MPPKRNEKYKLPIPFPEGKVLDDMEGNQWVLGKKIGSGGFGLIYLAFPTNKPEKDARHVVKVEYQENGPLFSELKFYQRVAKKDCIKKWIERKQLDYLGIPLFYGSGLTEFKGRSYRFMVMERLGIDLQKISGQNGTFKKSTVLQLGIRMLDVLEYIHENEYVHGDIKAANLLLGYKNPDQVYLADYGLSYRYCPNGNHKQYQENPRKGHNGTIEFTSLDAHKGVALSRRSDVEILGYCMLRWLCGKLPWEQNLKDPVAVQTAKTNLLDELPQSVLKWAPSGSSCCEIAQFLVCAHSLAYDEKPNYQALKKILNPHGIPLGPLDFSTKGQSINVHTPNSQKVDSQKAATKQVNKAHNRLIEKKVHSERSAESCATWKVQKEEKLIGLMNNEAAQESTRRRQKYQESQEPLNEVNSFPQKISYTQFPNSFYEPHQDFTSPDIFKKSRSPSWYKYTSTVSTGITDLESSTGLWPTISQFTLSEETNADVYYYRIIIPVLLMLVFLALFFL

[6] = target: Tyrosine-protein kinase FRK (Homo sapiens) (UniProt P42685); test: PTK5(h) Eurofins kinase panel; conditions: Compound concentration 1.0 uM
Chain of Tyrosine-protein kinase FRK (Homo sapiens) (P42685 whole entry): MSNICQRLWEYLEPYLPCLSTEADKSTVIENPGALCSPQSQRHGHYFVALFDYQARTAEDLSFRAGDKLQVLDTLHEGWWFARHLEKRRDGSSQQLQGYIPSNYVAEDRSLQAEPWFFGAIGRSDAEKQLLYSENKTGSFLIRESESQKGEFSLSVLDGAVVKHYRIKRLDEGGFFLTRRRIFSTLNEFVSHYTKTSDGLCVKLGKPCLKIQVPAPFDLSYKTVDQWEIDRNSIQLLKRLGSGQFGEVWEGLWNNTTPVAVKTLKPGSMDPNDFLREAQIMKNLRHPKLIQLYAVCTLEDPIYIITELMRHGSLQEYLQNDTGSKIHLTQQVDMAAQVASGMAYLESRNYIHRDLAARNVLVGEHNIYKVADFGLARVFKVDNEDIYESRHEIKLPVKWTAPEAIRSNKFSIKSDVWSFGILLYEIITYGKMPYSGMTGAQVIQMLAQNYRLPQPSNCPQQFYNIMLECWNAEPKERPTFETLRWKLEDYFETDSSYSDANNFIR

[7] = target: Cyclin-dependent kinase 1/cyclin B (Homo sapiens) (UniProt P06493+P14635+Q8WWL7+O95067); test: CDK1/cyclinB(h) Eurofins kinase panel; format: protein-complex assay; conditions: Compound concentration 1.0 uM
[8] = target: T2, Serine/threonine-protein kinase Sgk3 (Homo sapiens) (UniProt Q96BR1); test: SGK3(h) Eurofins kinase panel; conditions: Compound concentration 1.0 uM
T2 sequence (whole entry): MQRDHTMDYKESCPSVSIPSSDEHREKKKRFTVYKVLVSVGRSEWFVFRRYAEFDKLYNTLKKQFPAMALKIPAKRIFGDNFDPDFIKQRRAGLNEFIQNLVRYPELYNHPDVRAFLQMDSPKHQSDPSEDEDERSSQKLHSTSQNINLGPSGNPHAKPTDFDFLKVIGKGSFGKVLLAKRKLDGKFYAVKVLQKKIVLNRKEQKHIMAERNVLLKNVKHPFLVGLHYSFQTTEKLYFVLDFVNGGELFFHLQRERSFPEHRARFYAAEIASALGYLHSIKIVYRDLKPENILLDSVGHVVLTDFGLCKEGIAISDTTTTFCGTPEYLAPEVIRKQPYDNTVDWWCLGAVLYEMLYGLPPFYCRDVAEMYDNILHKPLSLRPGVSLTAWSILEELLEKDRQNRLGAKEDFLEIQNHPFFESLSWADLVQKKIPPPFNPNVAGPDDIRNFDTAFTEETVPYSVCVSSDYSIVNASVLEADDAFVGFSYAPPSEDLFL

[9] = target: MAPK/MAK/MRK overlapping kinase (Homo sapiens) (UniProt Q9UQ07); test: MOK(h) Eurofins kinase panel; conditions: Compound concentration 1.0 uM
[10] = target: CDK9/cyclin T1 (Homo sapiens) (UniProt O60563+P50750); test: CDK9/cyclin T1(h) Eurofins kinase panel; format: protein-complex assay; conditions: Compound concentration 1.0 uM
[11] = target: Serine/threonine-protein kinase 24 (Homo sapiens, UniProt Q9Y6E0)
Chain of Serine/threonine-protein kinase 24 (Q9Y6E0 whole entry): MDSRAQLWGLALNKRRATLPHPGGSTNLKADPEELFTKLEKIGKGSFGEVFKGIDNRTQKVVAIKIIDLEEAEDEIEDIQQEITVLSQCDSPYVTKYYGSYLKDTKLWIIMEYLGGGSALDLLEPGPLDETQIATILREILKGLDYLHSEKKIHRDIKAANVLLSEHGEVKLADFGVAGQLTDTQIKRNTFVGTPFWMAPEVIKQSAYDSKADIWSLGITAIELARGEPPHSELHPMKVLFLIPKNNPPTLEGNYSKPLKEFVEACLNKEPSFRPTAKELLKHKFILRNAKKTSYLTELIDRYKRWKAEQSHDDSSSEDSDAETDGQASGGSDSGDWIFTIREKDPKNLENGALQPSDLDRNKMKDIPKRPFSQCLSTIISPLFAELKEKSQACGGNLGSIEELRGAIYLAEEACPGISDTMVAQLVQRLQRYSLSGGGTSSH

[12] = target: RAC-gamma serine/threonine-protein kinase (Homo sapiens) (UniProt Q9Y243); test: PKBgamma (h) Eurofins kinase panel; conditions: Compound concentration 1.0 uM
Chain of RAC-gamma serine/threonine-protein kinase (Homo sapiens) (Q9Y243 whole entry): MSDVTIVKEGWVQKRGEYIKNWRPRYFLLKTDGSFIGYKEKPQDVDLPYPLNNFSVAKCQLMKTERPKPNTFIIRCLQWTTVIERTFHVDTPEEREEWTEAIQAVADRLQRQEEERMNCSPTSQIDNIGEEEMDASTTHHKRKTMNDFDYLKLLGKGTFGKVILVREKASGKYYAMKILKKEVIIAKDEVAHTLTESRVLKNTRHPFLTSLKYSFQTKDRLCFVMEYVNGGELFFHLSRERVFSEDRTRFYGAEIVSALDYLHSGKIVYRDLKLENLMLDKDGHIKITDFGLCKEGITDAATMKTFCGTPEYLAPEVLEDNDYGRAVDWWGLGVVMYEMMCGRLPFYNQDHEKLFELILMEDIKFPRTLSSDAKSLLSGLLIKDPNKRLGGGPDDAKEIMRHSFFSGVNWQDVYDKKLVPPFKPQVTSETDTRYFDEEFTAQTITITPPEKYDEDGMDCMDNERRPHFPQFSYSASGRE

[13] = target: Serine/threonine-protein kinase PAK 1 (Homo sapiens) (UniProt Q13153); test: PAK1(h) Eurofins kinase panel; conditions: Compound concentration 1.0 uM
Chain of Serine/threonine-protein kinase PAK 1 (Homo sapiens) (Q13153 whole entry): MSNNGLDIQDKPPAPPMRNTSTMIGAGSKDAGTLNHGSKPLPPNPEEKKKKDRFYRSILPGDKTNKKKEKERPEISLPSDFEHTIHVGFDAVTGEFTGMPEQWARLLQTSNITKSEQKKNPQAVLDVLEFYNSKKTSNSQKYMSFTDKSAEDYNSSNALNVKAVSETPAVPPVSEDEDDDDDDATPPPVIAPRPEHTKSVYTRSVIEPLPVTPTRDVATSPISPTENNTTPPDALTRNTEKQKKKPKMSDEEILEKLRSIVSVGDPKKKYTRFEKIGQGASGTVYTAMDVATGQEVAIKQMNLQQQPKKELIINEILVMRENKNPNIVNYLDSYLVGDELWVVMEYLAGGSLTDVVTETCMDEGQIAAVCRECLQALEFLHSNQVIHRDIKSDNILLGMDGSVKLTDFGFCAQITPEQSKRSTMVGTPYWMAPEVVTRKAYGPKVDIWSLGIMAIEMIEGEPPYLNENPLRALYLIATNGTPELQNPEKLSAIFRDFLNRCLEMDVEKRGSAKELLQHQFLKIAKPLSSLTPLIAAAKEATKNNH

IMR-32 = test: IMR-32 cell line Proliferation assay; format: functional, Homo sapiens; conditions: time 6 day

Chain of Rho-associated protein kinase 1 (Homo sapiens) (Q13464 2-1354 limits assumed): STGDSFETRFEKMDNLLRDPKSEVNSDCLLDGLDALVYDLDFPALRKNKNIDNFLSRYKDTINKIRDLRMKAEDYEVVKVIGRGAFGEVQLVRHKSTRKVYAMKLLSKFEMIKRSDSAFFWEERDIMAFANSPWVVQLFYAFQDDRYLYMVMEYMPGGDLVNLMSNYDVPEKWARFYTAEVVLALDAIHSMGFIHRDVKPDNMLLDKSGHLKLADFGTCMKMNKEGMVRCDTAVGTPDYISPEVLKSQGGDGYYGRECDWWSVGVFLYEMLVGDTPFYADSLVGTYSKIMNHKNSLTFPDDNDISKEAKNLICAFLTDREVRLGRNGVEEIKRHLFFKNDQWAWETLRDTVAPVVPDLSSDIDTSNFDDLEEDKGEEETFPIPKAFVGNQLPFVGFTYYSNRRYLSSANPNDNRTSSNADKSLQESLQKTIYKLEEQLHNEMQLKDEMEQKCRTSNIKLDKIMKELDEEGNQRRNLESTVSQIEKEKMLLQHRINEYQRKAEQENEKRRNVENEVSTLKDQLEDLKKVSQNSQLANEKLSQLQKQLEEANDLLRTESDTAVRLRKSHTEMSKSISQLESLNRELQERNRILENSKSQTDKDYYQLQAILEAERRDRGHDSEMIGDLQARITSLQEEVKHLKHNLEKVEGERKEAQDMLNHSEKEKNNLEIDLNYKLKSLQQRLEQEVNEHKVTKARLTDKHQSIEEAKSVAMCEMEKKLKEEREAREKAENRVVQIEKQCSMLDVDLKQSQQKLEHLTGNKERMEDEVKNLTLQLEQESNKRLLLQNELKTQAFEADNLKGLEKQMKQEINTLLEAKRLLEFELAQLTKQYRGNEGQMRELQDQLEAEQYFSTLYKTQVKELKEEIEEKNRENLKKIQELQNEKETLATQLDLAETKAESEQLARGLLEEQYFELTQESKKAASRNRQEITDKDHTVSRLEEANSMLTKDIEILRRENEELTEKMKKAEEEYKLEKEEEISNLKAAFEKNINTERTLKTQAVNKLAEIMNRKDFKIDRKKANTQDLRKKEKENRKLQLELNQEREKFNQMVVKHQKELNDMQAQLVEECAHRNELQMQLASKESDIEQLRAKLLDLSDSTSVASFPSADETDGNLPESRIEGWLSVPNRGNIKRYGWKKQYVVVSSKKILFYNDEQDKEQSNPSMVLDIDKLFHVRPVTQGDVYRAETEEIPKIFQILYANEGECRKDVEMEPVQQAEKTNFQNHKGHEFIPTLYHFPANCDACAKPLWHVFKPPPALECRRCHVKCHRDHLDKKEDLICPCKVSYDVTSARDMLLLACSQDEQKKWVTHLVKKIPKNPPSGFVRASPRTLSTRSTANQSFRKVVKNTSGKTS
Chain of RAF proto-oncogene serine/threonine-protein kinase (Homo sapiens) (P04049 whole entry, the tested form may be a part): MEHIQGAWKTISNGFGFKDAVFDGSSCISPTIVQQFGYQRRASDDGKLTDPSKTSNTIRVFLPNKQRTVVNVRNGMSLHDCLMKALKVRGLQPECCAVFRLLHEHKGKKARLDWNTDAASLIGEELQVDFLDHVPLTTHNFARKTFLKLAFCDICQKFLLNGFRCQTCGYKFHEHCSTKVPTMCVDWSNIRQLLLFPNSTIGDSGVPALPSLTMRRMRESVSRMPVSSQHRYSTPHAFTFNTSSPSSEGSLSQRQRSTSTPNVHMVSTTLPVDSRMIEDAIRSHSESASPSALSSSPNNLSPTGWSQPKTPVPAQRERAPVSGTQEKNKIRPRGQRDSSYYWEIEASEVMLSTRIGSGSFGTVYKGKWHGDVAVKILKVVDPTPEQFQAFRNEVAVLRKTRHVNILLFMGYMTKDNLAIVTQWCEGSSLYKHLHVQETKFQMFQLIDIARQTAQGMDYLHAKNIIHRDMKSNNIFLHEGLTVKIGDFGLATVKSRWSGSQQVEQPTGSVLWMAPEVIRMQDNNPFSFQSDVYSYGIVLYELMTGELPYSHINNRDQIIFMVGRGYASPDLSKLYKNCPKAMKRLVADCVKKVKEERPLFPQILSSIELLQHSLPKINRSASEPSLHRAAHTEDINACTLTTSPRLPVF

CCc1ccccc1C(=O)Nc1n[nH]c2c(C)c(F)c(C3C(C#N)=C(C)N(C)C(C)=C3C#N)cc12 [BAY-3827]
% residual kinase activity [1]: 104%
% residual kinase activity [2]: 99%
% residual kinase activity [3]: 100%
% residual kinase activity [4]: 43%
% residual kinase activity [5]: 98%
% residual kinase activity [6]: 91%
% residual kinase activity [7]: 98%
% residual kinase activity [8]: 95%
% residual kinase activity [9]: 115%
% residual kinase activity [10]: 91%
IC50 [11]: 94 nM
% residual kinase activity [12]: 78%
% residual kinase activity [13]: 94%
Cell Proliferation IC50 (IMR-32): >11500 nM
